The source of these data is paper PMC5608353 (PLoS ONE, 2017).

≈ marks a conversion by molar mass, not a printed value. Where “and” joins values, the source holds several entries; their conditions need not be identical. Equal entries are not always repeated. Where two headings read alike, the source gives them in different places. Where a SMILES comes first, the peptide text is derived from it. Bridges are numbered along the chain shown (N, C = ends).

Test [1] relates to C. perfringens JT1. Put plainly: microbe, parasite or virus in culture. The note with it: Clostridium perfringens, JT1, 18 h.
The test system of test [2] is C. perfringens CVCC 46. To be noted: for FIC: MIC in combination / MIC alone.
For test [3], the system named is C. perfringens CVCC 51. Put plainly: microbe, parasite or virus in culture. To be noted: Clostridium perfringens, CVCC51, 18 h.
Test [4] concerns C. perfringens CVCC 46. Put plainly: microbe, parasite or virus in culture. To be noted: Clostridium perfringens, CVCC46, read-out: MICa (MIC of drug used alone).
Test [5] concerns C. perfringens CVCC 1137. Put plainly: microbe, parasite or virus in culture. The note with it: Clostridium perfringens, CVCC1137, 18 h.
The test system of test [6] is C. perfringens JZ10. Put plainly: microbe, parasite or virus in culture. To be noted: Clostridium perfringens, JZ10, 18 h.
Test [7] deals with C. perfringens CVCC 46. Put plainly: microbe, parasite or virus in culture. To be noted: Clostridium perfringens, CVCC46, 18 h.
The subject of test [8] is C. perfringens CVCC 46. In kind it is cell-based, Clostridium perfringens type A.
The test system of test [9] is C. perfringens JC2. Put plainly: microbe, parasite or virus in culture. To be noted: Clostridium perfringens, JC2, 18 h.
Test [10] has as its system C. perfringens JT1. To be noted: JT1, 18 h.
For test [11], the system named is C. perfringens JC2. To be noted: JC2, 18 h.
In test [12] the test system is C. perfringens CVCC 1137. The note with it: CVCC 1137, 18 h.
Test [13] relates to C. perfringens CVCC 46. The format is cell-based, Clostridium perfringens type A. This is another data set of the same source.
In test [14] the test system is C. perfringens JZ10. The note with it: JZ10, 18 h.
Test [15] concerns C. perfringens genomic DNA. The format is binding, Clostridium perfringens.
Test [16] has as its system C. perfringens CVCC 46. The note with it: CVCC 46, 18 h.
The subject of test [17] is C. perfringens type C CVCC 61 cells. To be noted: cited from earlier work.
The subject of test [18] is C. perfringens CVCC 46. In kind it is cell-based, Clostridium perfringens type A. This is another data set of the same source.
Test [19] has as its system C. perfringens CVCC 46 genomic DNA. In kind it is binding, Clostridium perfringens type A.
In test [20] the test system is C. perfringens CVCC 51. The note with it: CVCC 51, 18 h.
The mark [21] stands for this setting: CVCC 46, 2×MIC, 1×10^5 CFU/mL, 37°C, colony counts.

For the molecule `CN(C)[C@@H]1C(O)=C(C(N)=O)C(=O)[C@@]2(O)C(O)=C3C(=O)c4c(O)ccc(Cl)c4[C@@](C)(O)[C@H]3C[C@@H]12` [Aureomycin], the MIC against C. perfringens JT1 [1] came to 16.7 µM (≈ 8 µg/mL); in the test with C. perfringens CVCC 51 [3] it was 1.04 µM (≈ 0.498 µg/mL); in the test with C. perfringens CVCC 46 [4], 8.36 µM; against C. perfringens CVCC 1137 [5] it was 0.52 µM (≈ 0.249 µg/mL); with C. perfringens JZ10 [6], 16.7 µM (≈ 8 µg/mL); against C. perfringens CVCC 46 [7], 4.18 µM (≈ 2 µg/mL). In the test with C. perfringens JC2 [9], the MIC was determined as 16.7 µM (≈ 8 µg/mL). The “MICC (MIC of drug used in combination)” value in the test with C. perfringens CVCC 46 [2] (combination Aureomycin-MP1102, CVCC 46) worked out at 2.09 µM; in the test with C. perfringens CVCC 46 [2] (combination Aureomycin-NZ2114, CVCC 46) it was 4.18 µM. Moreover, the values for the FIC with C. perfringens CVCC 46 [2] (combination Aureomycin-MP1102) and in the test with C. perfringens CVCC 46 [2] (combination Aureomycin-NZ2114) were 0.25 and 0.5, respectively. This molecule showed an MBC in the test on C. perfringens CVCC 46 [7] of 8.36 µM (≈ 4 µg/mL). Besides, in the test with C. perfringens CVCC 46 [8] (setting [21]), the “Time to 99.9% reduction of bacterial counts” value (“Time to 99.9% reduction” for short) is recorded as 2~4 h. For the same molecule, the “Bacterial regrowth in time-kill curve” value in the test with C. perfringens CVCC 46 [8] (CVCC 46, 2×MIC, followed for 10 h) is listed as “regrowth of C. perfringens strain CVCC 46 was observed”.
`CCC[C@@H]1C[C@@H](C(=O)N[C@@H]([C@H]2O[C@H](SC)[C@H](O)[C@@H](O)[C@H]2O)[C@@H](C)O)N(C)C1` [Lincomycin]: the MIC against C. perfringens JT1 [1] was 2.2 µM (≈ 0.894 µg/mL); against C. perfringens CVCC 51 [3], 4.3 µM (≈ 1.75 µg/mL); in the test with C. perfringens CVCC 46 [4], 8.68 µM; in the test with C. perfringens CVCC 1137 [5], 2.17 µM (≈ 0.882 µg/mL); in the test on C. perfringens JZ10 [6], more than 278 µM; in the test with C. perfringens CVCC 46 [7] it was 8.68 µM (≈ 3.53 µg/mL). Moreover, in the test on C. perfringens JC2 [9], the MIC was more than 278 µM. For the same molecule, the “MICC (MIC of drug used in combination)” value was 4.34 µM in the test with C. perfringens CVCC 46 [2] (combination Lincomycin-MP1102, CVCC 46) and 4.34 µM in the test with C. perfringens CVCC 46 [2] (combination Lincomycin-NZ2114, CVCC 46). The FIC in the test with C. perfringens CVCC 46 [2] (combination Lincomycin-MP1102) and in the test on C. perfringens CVCC 46 [2] (combination Lincomycin-NZ2114) was 0.5 each time. In addition, the MBC against C. perfringens CVCC 46 [7] was determined as 8.68 µM (≈ 3.53 µg/mL). Also, the “Time to 99.9% reduction” value with C. perfringens CVCC 46 [8] (setting [21]) is reported as 2~4 h.
Take `CC[C@H](C)[C@@H]1NC(=O)[C@H](CO)NC(=O)[C@H](CCCCN)NC(=O)[C@@H]2CSSC[C@@H](C(=O)N[C@@H](Cc3ccc(O)cc3)C(=O)O)NC(=O)[C@H](CCCCN)NC(=O)[C@@H]3CSSC[C@H](NC(=O)[C@H](CCCCN)NC(=O)[C@H](C(C)C)NC(=O)[C@H](CC(=O)O)NC(=O)[C@H](CC(=O)O)NC(=O)[C@H](CCC(=O)O)NC(=O)[C@H](CCC(N)=O)NC(=O)[C@H](Cc4c[nH]c5ccccc45)NC(=O)[C@@H]4CCCN4C(=O)CNC(=O)[C@H](CC(N)=O)NC(=O)[C@@H](NC(=O)CNC(=O)[C@H](Cc4ccccc4)NC(=O)CN)CSSC[C@H](NC(=O)[C@H](Cc4ccc(O)cc4)NC(=O)CNC(=O)CNC(=O)[C@H](CCCCN)NC(=O)[C@H](Cc4ccc(O)cc4)NC(=O)CNC(=O)[C@H](CCCCN)NC1=O)C(=O)N[C@@H](C)C(=O)N[C@@H](CCCCN)C(=O)NCC(=O)NCC(=O)N[C@@H](Cc1ccccc1)C(=O)N[C@@H](C(C)C)C(=O)N3)C(=O)N[C@@H](Cc1c[nH]cn1)C(=O)N[C@@H](CC(N)=O)C(=O)N[C@@H](Cc1c[nH]cn1)C(=O)N2` [MP1102] (H-GFGCNGPWQEDDVKCHNHCKSIKGYKGGYCAKGGFVCKCY-OH; disulfide 4-30, 15-37, 19-39): the MIC in the test with C. perfringens JT1 [10] was 0.46 µM (≈ 2.02 µg/mL); in the test with C. perfringens JC2 [11] it was more than 14.5 µM; with C. perfringens CVCC 1137 [12], 1.82 µM (≈ 7.98 µg/mL); against C. perfringens JZ10 [14] it was more than 14.5 µM; in the test with C. perfringens CVCC 46 [16] it was 0.91 µM (≈ 3.99 µg/mL); in the test with C. perfringens CVCC 51 [20], 0.91 µM (≈ 3.99 µg/mL). The “MICa (MIC of drug used alone)” value with C. perfringens CVCC 46 [2] came to 1.82 µM. Further, in the test with C. perfringens CVCC 46 [2] (CVCC 46), the “FICI, range over the tested antibiotics” value is reported as 0.375~1.0. The “PI-stained percentages of cells, range over time” value in the test with C. perfringens CVCC 46 [13] is listed as 36.5~96.7%. In test [15], the “Change of CD spectrum of genomic DNA” value is on record as “DNA ellipticity intensity decreased”. The same molecule had an MBC in the test on C. perfringens CVCC 46 [16] of 0.91 µM (≈ 3.99 µg/mL). In addition, the “PI-stained percentages of cells” value in test [17] is reported as 3.11~5.67%. Moreover, the “Ratio of cells in phase I” value with C. perfringens CVCC 46 [18] was 8.14% and 13.65%. Besides, the “Bacterial regrowth in time-kill curve” value with C. perfringens CVCC 46 [8] is reported as “no bacterial regrowth”. The “Time to 99.9% reduction” value in the test with C. perfringens CVCC 46 [8] is reported as not above 1 h. In addition, the “Binding to genomic DNA (gel retardation)” value in test [19] is “interacted with MDR C. perfringens CVCC 46 genomic DNA”. Further, the “Peptide/DNA mass ratio for complete retardation of DNA migration” value in [19] was more than 10.0.
